Assays:
Human CGT = target: T1, Human CGT (Homo sapiens, UniProt Q16880); assay: CGT enzyme assay (cell-lysate assay); type: biochemical; conditions: lysate of CHO cells expressing human UGT8
T1 construct: made in house; host or cells: CHO cells expressing UGT8; crude M-PER lysate
T1 sequence (Q16880 21-541): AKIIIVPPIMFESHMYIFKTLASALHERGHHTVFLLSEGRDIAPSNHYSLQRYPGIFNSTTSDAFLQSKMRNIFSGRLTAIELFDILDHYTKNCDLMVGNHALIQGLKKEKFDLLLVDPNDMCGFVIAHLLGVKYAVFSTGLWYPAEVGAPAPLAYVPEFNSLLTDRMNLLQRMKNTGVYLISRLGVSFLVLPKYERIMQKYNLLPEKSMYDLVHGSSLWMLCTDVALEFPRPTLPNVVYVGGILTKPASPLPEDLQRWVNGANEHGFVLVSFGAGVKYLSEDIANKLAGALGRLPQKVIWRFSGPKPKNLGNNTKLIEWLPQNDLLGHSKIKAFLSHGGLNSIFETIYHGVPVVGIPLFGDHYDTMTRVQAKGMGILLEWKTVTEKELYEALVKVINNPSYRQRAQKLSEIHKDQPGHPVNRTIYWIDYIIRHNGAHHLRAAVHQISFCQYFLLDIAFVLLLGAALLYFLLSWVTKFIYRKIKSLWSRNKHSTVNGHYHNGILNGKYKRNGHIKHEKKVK
Description: Human CGT was obtained from a cell lysate from CHO cells expressing UGT8 (made by BioMarin) prepared in M-PER with proteinase inhibitors (Sigma). Compounds, serially diluted in DMSO and Tween 80, were added to 4 µg/well of CHO/CGT cell lysate to make 20 µL final reaction volume containing 0.5% DMSO and 0.01% Tween 80 in the reaction buffer consisting of 10 µM NDB-(2R-OH)-C6 ceramide (made by BioMarin), 17.5 µM UDP-Galactose (Sigma), 35 µM of dioleoylphosphatidylcholine (DOPC), 5 mM MgCl2, 5 mM MnCl2, 1% BSA, 15 mM KCl, 1 mM EGTA, 8 mM CHAPS, 10 mM HEPES–NaOH pH 7.2. The reaction was incubated at 37 °C for 1 h and stopped by adding 80 µL of methanol:acetonitrile (1:3) with 5 µM N-dodecanoyl-NBD-galactosylceramide (Matreya) internal standard (IS) for 30 min. 200 µL H2O:ACN (1:1) was added for 5 min and then centrifuged at 4000 rpm for 38 min at RT before quantifying NDB-(2R-OH)-C6-galactosylceramide (BioMarin) by LC–MS on a Rapid Fire 360 mass spectrometer (Agilent) coupled with a API4000 + MS in electrospray ionization (ESI) negative mode (Applied Biosystems). These assay conditions were used to screen the Bio-active lipid library (Cayman Cat# 10506).

[1] = tested on: GalCer and psychosine levels; assay: Twitcher mouse brain psychosine and galactosylceramide analysis; type: in vivo; conditions: Twitcher mice treated PND3-PND28
Description: Mice heterozygous for the Twitcher mutation on the congenic C57BL/6 background were originally purchased from The Jackson Laboratories (stock #000845). Homozygous GALC −/− animals were generated from heterozygous mating. Genotypes were determined on PND1 by PCR as previously described[43],[44]. Animals that died prior to weaning on PND28 were excluded from the study unless otherwise noted. Animals were euthanized when they became moribund as defined by any of the following: losing 25% of their maximal body weight, ataxia severe enough to impair ability to eat or drink, or lack of response to tactile stimulus. Animals used for tissue collection were euthanized by anesthetic overdose and perfused transcardially with PBS for three min. Animals for lifespan analysis were euthanized using CO2 compressed gas delivered at 10–30% chamber volume displacement per min. […] Tissues were harvested and flash frozen in liquid nitrogen.
Galactosylsphingosine (psychosine), and galactosylceramide were measured by tandem mass spectrometry as previously described. Briefly, tissue samples were homogenized in 0.04 M citric acid. Internal controls in 200 µL methanol were added to 50 µL of each sample. […] Galactosylsphingosine and galactosylceramide were detected using MRM on an AB SCIEX 4000QTRAP tandem mass spectrometer using ESI in the positive ion mode. […]

UGT1A = target: T2, UGT1A (Homo sapiens, UniProt P22309); assay: UDP glucuronosyltransferase assay (Eurofins Panlabs); type: biochemical
T2 construct: purchased Eurofins Panlabs Taiwan, Ltd. ITEM 196000
T2 sequence (P22309 26-533): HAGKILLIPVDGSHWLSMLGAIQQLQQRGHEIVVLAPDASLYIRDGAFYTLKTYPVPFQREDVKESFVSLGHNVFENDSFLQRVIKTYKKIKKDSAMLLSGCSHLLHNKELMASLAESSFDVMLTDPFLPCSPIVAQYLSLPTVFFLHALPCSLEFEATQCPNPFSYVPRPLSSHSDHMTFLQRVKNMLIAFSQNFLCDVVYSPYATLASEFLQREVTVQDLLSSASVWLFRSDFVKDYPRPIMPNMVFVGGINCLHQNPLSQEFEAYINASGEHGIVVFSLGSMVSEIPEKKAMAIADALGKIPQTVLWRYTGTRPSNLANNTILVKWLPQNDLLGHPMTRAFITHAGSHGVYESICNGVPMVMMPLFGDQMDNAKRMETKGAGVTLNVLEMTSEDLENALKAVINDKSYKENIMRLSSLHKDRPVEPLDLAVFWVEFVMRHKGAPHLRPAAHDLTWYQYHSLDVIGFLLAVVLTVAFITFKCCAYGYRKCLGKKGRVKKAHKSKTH
Description: UGT1A activity was evaluated at Eurofins Panlabs Taiwan, Ltd. ITEM 196000.

C[C@H]1N(c2ccc(Br)cc2)C(=O)N(c2ccc(Br)cc2)C1(O)c1cccc(OC(F)(F)F)c1 (stereo partly shown) [S202]
IC50 (Human CGT): 15 nM
non-hydroxy-GalCer in the brain [1]: dose-dependent reduction
psychosine levels in the brain [1]: reduced to the same extent as the non-hydroxy-GalCer
IC50 (UGT1A): > 30000 nM
